Test results taken from ChEMBL document CHEMBL5465560, “Selectivity Literature for EUbOPEN Chemogenomic Library” (2024).
Values belong to the compound of their own block, whether it stands above or below them.

Columns and labels:
[1] = biological target: T1, Serine/threonine-protein kinase Nek2 (Homo sapiens) (UniProt P51955); experiment: Selectivity interaction (KinomeScan (DiscoverX)) EUB0001049a NEK2; details: at 1 µM
T1 sequence (whole entry): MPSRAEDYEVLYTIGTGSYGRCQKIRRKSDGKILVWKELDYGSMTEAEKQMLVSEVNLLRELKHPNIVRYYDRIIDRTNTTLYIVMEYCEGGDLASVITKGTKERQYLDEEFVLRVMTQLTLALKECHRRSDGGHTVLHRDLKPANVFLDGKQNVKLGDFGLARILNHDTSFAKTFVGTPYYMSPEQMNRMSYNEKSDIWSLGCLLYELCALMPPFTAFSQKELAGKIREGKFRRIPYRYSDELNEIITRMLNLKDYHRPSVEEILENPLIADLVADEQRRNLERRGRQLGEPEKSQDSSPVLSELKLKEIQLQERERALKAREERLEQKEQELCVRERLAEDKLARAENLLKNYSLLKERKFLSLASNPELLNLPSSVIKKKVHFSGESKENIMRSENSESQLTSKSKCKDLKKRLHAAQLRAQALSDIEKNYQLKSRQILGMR

[2] = biological target: Misshapen-like kinase 1 (Homo sapiens, UniProt Q8N4C8); experiment: Selectivity interaction (ActivX KiNativ screen (kinase selectivity in THP-1 cell lysates)) EUB0000639a MINK1; format: subcellular; details: lysate
[3] = biological target: Endothelin-1 receptor (Homo sapiens) (UniProt P25101); experiment: Selectivity interaction (Panel of non-epigenetic targets (kinases, GPCRs, ion channels, and transporters, Eurofins) ) EUB0000271b EDNRA; details: at 1 µM
[4] = biological target: T2, Serine/threonine-protein kinase Nek5 (Homo sapiens) (UniProt Q6P3R8); experiment: Selectivity interaction (KinomeScan (DiscoverX)) EUB0000229b NEK5; details: at 10 µM
T2 sequence (whole entry): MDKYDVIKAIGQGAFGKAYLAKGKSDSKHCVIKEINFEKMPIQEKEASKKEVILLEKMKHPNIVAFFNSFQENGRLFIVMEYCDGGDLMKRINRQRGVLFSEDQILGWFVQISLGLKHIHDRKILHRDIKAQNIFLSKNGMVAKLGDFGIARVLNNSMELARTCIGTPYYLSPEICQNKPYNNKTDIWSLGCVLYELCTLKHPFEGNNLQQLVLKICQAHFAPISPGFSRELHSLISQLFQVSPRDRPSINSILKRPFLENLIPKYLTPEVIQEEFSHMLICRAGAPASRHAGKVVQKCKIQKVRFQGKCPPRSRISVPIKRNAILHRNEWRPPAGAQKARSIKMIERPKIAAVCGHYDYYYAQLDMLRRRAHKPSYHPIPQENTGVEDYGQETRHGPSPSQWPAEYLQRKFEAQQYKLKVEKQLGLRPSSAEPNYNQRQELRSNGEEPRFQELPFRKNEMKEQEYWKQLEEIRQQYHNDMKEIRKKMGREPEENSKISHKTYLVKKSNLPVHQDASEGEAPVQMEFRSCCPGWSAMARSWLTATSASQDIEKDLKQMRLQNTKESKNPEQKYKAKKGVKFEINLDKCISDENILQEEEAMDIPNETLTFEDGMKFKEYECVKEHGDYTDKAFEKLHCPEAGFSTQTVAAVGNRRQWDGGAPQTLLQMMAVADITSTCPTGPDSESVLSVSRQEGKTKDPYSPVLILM

[5] = biological target: G protein-coupled receptor kinase 4 (Homo sapiens) (UniProt P32298); experiment: Selectivity interaction (KinomeScan (DiscoverX)) EUB0000092b GRK4; details: at 10 µM
[6] = biological target: T3, Ephrin type-A receptor 1 (Homo sapiens) (UniProt P21709); experiment: Selectivity interaction (SelectScreen profiling (Invitrogen)) EUB0000607a EPHA1; details: at 2 µM
T3 sequence (whole entry): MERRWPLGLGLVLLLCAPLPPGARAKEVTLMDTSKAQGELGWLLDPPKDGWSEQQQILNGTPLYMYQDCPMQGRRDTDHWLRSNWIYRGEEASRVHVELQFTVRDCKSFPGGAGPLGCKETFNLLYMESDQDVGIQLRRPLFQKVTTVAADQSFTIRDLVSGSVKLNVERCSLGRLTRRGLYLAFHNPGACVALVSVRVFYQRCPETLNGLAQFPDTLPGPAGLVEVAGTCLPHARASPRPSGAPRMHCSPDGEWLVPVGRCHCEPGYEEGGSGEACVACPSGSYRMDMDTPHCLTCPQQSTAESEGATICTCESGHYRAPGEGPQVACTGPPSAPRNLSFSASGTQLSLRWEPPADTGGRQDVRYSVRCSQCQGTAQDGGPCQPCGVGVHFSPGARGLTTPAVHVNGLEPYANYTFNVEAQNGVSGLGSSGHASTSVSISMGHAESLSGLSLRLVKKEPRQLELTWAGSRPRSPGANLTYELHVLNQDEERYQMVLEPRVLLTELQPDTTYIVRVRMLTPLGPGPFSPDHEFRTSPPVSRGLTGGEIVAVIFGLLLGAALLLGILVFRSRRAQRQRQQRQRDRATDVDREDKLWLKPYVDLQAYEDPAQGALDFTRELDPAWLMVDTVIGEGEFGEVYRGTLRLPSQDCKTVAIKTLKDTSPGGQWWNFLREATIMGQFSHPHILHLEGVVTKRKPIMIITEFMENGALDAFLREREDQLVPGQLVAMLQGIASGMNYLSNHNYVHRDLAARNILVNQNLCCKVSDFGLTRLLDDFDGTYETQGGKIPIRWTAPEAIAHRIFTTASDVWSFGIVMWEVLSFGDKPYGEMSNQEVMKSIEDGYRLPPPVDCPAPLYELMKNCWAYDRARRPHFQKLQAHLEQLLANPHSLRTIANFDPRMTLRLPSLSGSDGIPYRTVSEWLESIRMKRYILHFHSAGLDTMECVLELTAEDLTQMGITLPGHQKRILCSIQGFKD

Sequence of Misshapen-like kinase 1 (Q8N4C8 whole entry, looked up): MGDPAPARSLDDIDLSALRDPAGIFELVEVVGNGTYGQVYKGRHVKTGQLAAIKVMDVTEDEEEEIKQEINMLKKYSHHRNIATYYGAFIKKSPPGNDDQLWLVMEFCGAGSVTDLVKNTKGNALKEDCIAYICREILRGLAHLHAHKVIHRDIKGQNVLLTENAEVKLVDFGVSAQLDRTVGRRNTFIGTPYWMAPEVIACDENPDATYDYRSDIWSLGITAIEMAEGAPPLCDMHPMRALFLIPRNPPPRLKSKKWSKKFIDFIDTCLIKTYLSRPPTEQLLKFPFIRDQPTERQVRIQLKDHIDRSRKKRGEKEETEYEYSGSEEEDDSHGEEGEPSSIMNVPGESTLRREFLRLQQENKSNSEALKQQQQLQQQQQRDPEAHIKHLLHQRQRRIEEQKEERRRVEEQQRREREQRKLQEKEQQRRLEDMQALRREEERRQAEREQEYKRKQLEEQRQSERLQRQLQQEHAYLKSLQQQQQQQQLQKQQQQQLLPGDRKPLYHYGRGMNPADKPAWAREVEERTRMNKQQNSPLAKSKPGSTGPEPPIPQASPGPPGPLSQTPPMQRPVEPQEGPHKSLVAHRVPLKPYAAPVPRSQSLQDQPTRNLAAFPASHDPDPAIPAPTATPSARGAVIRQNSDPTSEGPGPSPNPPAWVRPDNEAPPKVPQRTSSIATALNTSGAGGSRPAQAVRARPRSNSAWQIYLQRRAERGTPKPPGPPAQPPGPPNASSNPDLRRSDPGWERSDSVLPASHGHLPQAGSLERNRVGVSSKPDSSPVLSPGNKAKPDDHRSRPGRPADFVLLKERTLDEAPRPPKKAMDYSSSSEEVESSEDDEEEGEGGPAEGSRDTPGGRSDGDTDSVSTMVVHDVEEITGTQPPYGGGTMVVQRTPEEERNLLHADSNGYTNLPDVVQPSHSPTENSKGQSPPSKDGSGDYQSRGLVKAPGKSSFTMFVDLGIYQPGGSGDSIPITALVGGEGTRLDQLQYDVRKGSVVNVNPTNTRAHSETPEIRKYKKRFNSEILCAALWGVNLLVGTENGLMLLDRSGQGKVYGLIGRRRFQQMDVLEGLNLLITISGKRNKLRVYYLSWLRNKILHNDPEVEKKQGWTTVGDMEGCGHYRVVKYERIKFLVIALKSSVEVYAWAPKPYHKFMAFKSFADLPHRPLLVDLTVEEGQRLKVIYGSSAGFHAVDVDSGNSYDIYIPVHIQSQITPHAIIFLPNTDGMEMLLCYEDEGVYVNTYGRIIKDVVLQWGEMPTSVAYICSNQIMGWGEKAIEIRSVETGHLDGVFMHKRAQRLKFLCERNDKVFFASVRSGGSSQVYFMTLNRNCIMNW
Sequence of Endothelin-1 receptor (Homo sapiens) (P25101 whole entry): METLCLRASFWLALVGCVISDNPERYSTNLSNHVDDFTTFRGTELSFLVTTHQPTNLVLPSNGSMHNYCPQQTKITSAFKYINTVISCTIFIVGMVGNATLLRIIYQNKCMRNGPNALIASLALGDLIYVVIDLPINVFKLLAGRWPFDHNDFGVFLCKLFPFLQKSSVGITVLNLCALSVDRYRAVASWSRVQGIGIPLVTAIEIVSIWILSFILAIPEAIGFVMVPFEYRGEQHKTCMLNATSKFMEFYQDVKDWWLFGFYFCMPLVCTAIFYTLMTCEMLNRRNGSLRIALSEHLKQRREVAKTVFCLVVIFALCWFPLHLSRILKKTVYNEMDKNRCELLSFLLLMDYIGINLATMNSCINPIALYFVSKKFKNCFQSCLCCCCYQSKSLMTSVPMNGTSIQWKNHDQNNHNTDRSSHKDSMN
Sequence of G protein-coupled receptor kinase 4 (Homo sapiens) (P32298 whole entry, looked up): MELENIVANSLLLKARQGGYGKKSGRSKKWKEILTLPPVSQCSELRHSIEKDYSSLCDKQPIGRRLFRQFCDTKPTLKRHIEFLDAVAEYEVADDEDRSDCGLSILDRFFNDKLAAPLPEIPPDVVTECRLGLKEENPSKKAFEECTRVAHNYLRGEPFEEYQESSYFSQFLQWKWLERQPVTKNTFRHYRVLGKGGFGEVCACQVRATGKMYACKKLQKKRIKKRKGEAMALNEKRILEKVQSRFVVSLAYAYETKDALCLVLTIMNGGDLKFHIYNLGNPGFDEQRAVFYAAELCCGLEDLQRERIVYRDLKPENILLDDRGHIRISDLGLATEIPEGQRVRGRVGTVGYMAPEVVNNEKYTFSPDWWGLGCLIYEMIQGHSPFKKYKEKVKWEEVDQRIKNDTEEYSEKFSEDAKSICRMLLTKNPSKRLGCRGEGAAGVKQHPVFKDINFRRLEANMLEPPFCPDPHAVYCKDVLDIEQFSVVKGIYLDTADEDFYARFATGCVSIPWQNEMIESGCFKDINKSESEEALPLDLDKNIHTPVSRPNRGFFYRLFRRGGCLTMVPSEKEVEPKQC

Structure (SMILES): COc1cc(Nc2nc(C)cc(-c3cnn4nc(OC)ccc34)n2)cc(C(F)(F)F)c1
- % of control [1]: 98%

- % of inhibition ([2]; at 0.01 µM): -5.5%
- % of inhibition ([2]; at 0.04 µM): -1.7%
- % of inhibition ([2]; at 0.2 µM): -13.9%
- % of inhibition ([2]; at 1 µM): -2.7%
- % of inhibition ([2]; at 5 µM): 3.1%
Structure (SMILES): CC[C@@H]1[C@H](F)C(=O)N[C@@H]1COc1nccc2cc(C(N)=O)c(OC)cc12 [ZIMLOVISERTIB]

Structure (SMILES): Cc1cc(C)cc([C@@H]2c3cc(C)ccc3NC(=O)CN2C(=O)c2ccc(Br)s2)c1
- % of inhibition [3]: -24%

Structure (SMILES): COc1cc(N(C)c2ccnc3ccc(C(F)(F)F)cc23)cc(OC)c1OC
- % binding [4]: 93%

Structure (SMILES): CCC(=O)N1CCN(c2ccc(-n3c(=O)ccc4cnc5ccc(-c6cnc7ccccc7c6)cc5c43)cc2C(F)(F)F)CC1
- % of control [5]: 90%

Structure (SMILES): CNC(=O)Nc1ccc(-c2nc(N3CC4CCC(C3)O4)c3cnn(C4CCC5(CC4)OCCO5)c3n2)cc1
- % of inhibition [6]: 3%
